Reference: the supplement of paper PMC10307832

Compound: O=C(O)c1ccc2c(c1)nc(Nc1cccc(Cl)c1)c1ccncc12 [Silmitasertib]
Experiment: relative viability (nuclei count vs DMSO), 5 days (fraction); higher = more cells survive
How it was run: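 Lung cancer cell lines in 1536-well plates were kept overnight at 37 °C, then pinned with five library-drug doses (not always all listed) spaced by √10 on vehicle-anchored plates. After 5 days without medium change, cells were fixed, permeabilised and Hoechst-stained in one step, imaged at 4×, and nuclei were counted with MetaXpress. Viability is treated-well nuclei divided by vehicle-well nuclei, taken as the median over plates. Plates passed only with control CV below 25% and at least one doubling.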

Cell Line | relative viability (0.04 µM) | relative viability (0.4 µM) | relative viability (1.265 µM) | relative viability (4 µM)
201T | 1.08 | 0.994 | 1.02 | 1.06
A549 | 1.03 | 0.994 | 1 | 0.882
A-427 | 1.07 |  | 1.03 | 0.396
ABC-1 | 1.37 | 0.773 | 0.656 | 0.465
BEN | 1.16 | 0.795 | 1 | 0.885
CAL-12T | 1.15 | 0.892 | 0.842 | 0.472
COR-L23 | 1.07 | 0.782 | 1.09 | 0.831
COR-L 105 | 1.05 | 0.902 | 0.768 | 0.553
ChaGo-K-1 | 1.07 | 0.735 | 0.96 | 0.885
EKVX | 1.11 | 0.617 | 0.864 | 0.717
EMC-BAC-2 | 1.11 | 0.806 | 0.605 | 0.44
EPLC-272H | 1.25 |  | 0.807 | 0.154
H3255 | 1.05 | 0.877 | 0.946 | 0.906
HARA | 1.13 | 0.678 | 0.668 | 0.38
HCC-15 | 1.11 | 0.769 | 0.825 | 0.377
HCC-44 | 1.03 | 0.963 | 1.03 | 0.544
HCC-78 | 1.05 | 0.697 | 0.654 | 0.764
HCC-366 | 0.993 | 0.794 | 0.923 | 0.136
HCC-827 | 1.09 |  | 1.14 | 0.996
HOP-62 | 1.09 |  | 1.12 | 0.542
IA-LM | 1.03 | 0.749 | 1.08 | 0.409
LC-2-ad | 1.13 | 0.828 | 0.976 | 0.523
LCLC-97TM1 | 1.1 |  | 0.882 | 0.403
LCLC-103H | 0.986 | 0.99 | 0.945 | 0.628
LK-2 | 1.04 | 0.727 | 1.03 | 0.943
LOU-NH91 | 1.12 | 0.917 | 0.806 | 0.582

Cell Line | relative viability (0.04 µM) | relative viability (0.4 µM) | relative viability (1.265 µM) | relative viability (4 µM)
LU99A | 1.03 | 1.09 | 0.986 | 0.752
LXF-289 | 1.05 |  | 1.05 | 1.02
NCI-H23 | 1.07 | 0.395 | 0.747 | 0.372
NCI-H322M | 1.08 | 0.882 | 0.826 | 0.486
NCI-H358 | 1.13 | 0.757 | 0.744 | 0.667
NCI-H441 | 1 |  | 0.892 | 0.757
NCI-H460 | 1.03 | 0.951 | 0.959 | 0.799
NCI-H520 | 1.11 | 0.835 | 0.887 | 0.802
NCI-H522 | 1.09 | 0.788 | 0.82 | 0.694
NCI-H596 | 0.958 | 0.792 | 0.947 | 0.658
NCI-H647 | 0.968 | 0.758 | 0.723 | 0.498
NCI-H650 | 1.17 | 0.567 | 0.66 | 0.379
NCI-H661 | 1.06 | 0.829 | 0.946 | 0.991
NCI-H727 | 1.18 | 0.619 | 0.833 | 0.894
NCI-H838 | 1.03 | 0.747 | 0.925 | 0.678
NCI-H1355 | 1.06 |  | 0.918 | 0.668
NCI-H1395 | 1.07 | 0.772 | 0.913 | 0.555
NCI-H1437 | 1.04 | 0.679 | 0.784 | 0.737
NCI-H1563 | 0.989 | 1.03 | 0.887 | 0.903
NCI-H1650 | 1.15 | 0.784 | 0.629 | 0.389
NCI-H1651 | 0.974 | 0.991 | 1.02 | 0.989
NCI-H1666 | 1.05 | 0.834 | 0.745 | 0.692
NCI-H1703 | 1.13 | 0.883 | 1.1 | 1.11
NCI-H1734 | 1.07 | 0.816 | 0.975 | 0.691
NCI-H1755 | 1.03 | 0.953 | 1.05 | 1.16
NCI-H1792 | 0.987 | 0.788 | 0.858 | 0.416

Cell Line | relative viability (0.04 µM) | relative viability (0.4 µM) | relative viability (1.265 µM) | relative viability (4 µM)
NCI-H1793 | 1.09 | 0.654 | 0.771 | 0.529
NCI-H1915 | 1.01 |  | 1.03 | 0.554
NCI-H1944 | 1.01 | 0.748 | 0.994 | 0.936
NCI-H1975 | 1.18 |  | 0.904 | 0.917
NCI-H1993 | 1.08 | 0.742 | 0.837 | 0.622
NCI-H2009 | 1.05 | 0.878 | 0.85 | 0.608
NCI-H2023 | 1.03 | 0.791 | 0.87 | 0.651
NCI-H2085 | 1.03 | 0.779 | 0.941 | 0.902
NCI-H2087 | 1.04 | 0.596 | 0.875 | 0.466
NCI-H2126 | 0.996 | 0.824 | 0.939 | 0.81
NCI-H2170 | 1.02 | 0.712 | 0.932 | 0.96
NCI-H2228 | 0.949 | 0.715 | 1.12 | 1.06
NCI-H2342 | 1.1 | 0.839 | 0.998 | 0.839
NCI-H2347 | 1.1 | 0.754 | 0.98 | 0.687
NCI-H2405 | 1.24 | 0.831 | 0.883 | 0.81
NCI-H3122 | 0.995 | 0.889 | 1.02 | 0.983
PC-3 [JPC-3] | 1.04 | 0.812 | 1.1 | 0.953
PC-14 | 1.2 | 0.703 | 1.02 | 0.735
RERF-LC-KJ | 1.03 | 0.848 | 0.823 | 0.581
SK-LU-1 | 1.13 | 0.703 | 0.802 | 0.457
SK-MES-1 | 1.04 | 0.989 | 0.855 | 0.491
SW 900 | 1.02 | 0.503 | 0.651 | 0.295
SW 1573 | 1.19 | 0.955 | 0.876 | 0.779
UMC-11 | 1.11 | 0.916 | 0.985 | 0.684
